Like-named read-outs stand apart in the source and are kept apart here.
Assays:
[1] = system: P. falciparum 3D7 parasites; assay: P. falciparum growth inhibition assay, 2-cycle (120 h treatment), delayed-death screen and dose-response; type: cell-based, Plasmodium falciparum; conditions: for activity at 2 µg/mL: Plasmodium falciparum
[2] = system: T. gondii RH strain (RH-Tub-eYFP) tachyzoites; assay: microbe, parasite or virus in culture; type: cell-based, Toxoplasma gondii; conditions: 72 h; for percent parasite growth at 2 µg/mL: Toxoplasma gondii
[3] = system: P. falciparum 3D7 parasites; assay: P. falciparum growth inhibition assay, 1-cycle (72 h treatment), SYBR DNA staining (library screen at 2 μg/mL and dose-response); type: cell-based, Plasmodium falciparum; conditions: for activity at 2 µg/mL: Plasmodium falciparum
[4] = P. falciparum, 120 h, screen at 2 μg/mL, replicate 1
[5] = P. falciparum, 120 h, screen at 2 μg/mL, replicate 2
[6] = T. gondii, screen at 2 μg/mL, replicate 1
[7] = T. gondii, screen at 2 μg/mL, replicate 2
[8] = P. falciparum, 72 h, screen at 2 μg/mL, replicate 1
[9] = P. falciparum, 72 h, screen at 2 μg/mL, replicate 2
[10] = P. falciparum 3D7, 120 h, library screen at 2 μg/mL, % growth, replicate 1
[11] = P. falciparum 3D7, 120 h, library screen at 2 μg/mL, % growth, replicate 2
[12] = T. gondii RH, library screen at 2 μg/mL, % growth, replicate 1
[13] = T. gondii RH, library screen at 2 μg/mL, % growth, replicate 2
[14] = P. falciparum 3D7, 72 h, library screen at 2 μg/mL, % growth, replicate 1
[15] = P. falciparum 3D7, 72 h, library screen at 2 μg/mL, % growth, replicate 2
[16] = P. falciparum 3D7, 120 h, parasite screen at 2 μg/mL, % growth, replicate 1
[17] = P. falciparum 3D7, 120 h, parasite screen at 2 μg/mL, % growth, replicate 2
[18] = T. gondii, parasite screen at 2 μg/mL, % growth, replicate 1
[19] = T. gondii, parasite screen at 2 μg/mL, % growth, replicate 2
[20] = P. falciparum 3D7, 72 h, parasite screen at 2 μg/mL, % growth, replicate 1
[21] = P. falciparum 3D7, 72 h, parasite screen at 2 μg/mL, % growth, replicate 2
[22] = library screen at 2 μg/mL, 120 h, % growth, replicate 1
[23] = library screen at 2 μg/mL, 120 h, % growth, replicate 2
[24] = library screen at 2 μg/mL, % growth, replicate 1
[25] = library screen at 2 μg/mL, % growth, replicate 2
[26] = library screen at 2 μg/mL, 72 h, % growth, replicate 1
[27] = library screen at 2 μg/mL, 72 h, % growth, replicate 2

CC(C)C(=O)N[C@H](CO)[C@H](O)c1ccc([N+](=O)[O-])cc1 [Corynecin III]
Pf_120h_%Growth_Rep1 [1, 4]: 87.60% | Pf_120h_%Growth_Rep2 [1, 5]: 90.07% | Tg_72h_%Growth_Rep1 [2, 6]: 93.46% | Tg_72h_%Growth_Rep2 [2, 7]: 102.63% | Pf_72h_%Growth_Rep1 [3, 8]: 86.99% | Pf_72h_%Growth_Rep2 [3, 9]: 97.15%

COc1cc(-c2cc3c(c(=O)o2)C[C@]2(O)[C@@]4(C)C(=O)C=CC(C)(C)[C@]4(O)CC[C@@]2(C)O3)cc(OC)c1OC [Territrem B]
activity at 2 µg/mL ([1]; 3D7, 120 h, P. falciparum, 120 h, screen at 2 μg/mL, replicate 1, read-out: Pf_120h_%Growth_Rep1): 148% | activity at 2 µg/mL ([1]; 3D7, 120 h, P. falciparum, 120 h, screen at 2 μg/mL, replicate 2, read-out: Pf_120h_%Growth_Rep2): 68.3% | percent parasite growth at 2 µg/mL ([2]; T. gondii, screen at 2 μg/mL, replicate 1, read-out: Tg_72h_%Growth_Rep1): 89.7% | percent parasite growth at 2 µg/mL ([2]; T. gondii, screen at 2 μg/mL, replicate 2, read-out: Tg_72h_%Growth_Rep2): 98.2% | activity at 2 µg/mL ([3]; 3D7, 72 h, P. falciparum, 72 h, screen at 2 μg/mL, replicate 1, read-out: Pf_72h_%Growth_Rep1): 63.6% | activity at 2 µg/mL ([3]; 3D7, 72 h, P. falciparum, 72 h, screen at 2 μg/mL, replicate 2, read-out: Pf_72h_%Growth_Rep2): 64.7%

C[C@@H]1CC[C@H]2C(C)(C)[C@H](O)CC[C@]2(C)[C@@]12Cc1c(O)cc3c(c1O2)CNC3=O [Stachybotrylactam]
Pf_120h_%Growth_Rep1 ([1]; P. falciparum, 120 h, parasite screen 2 μg/mL, % growth, replicate 1): 94.74% | Pf_120h_%Growth_Rep2 ([1]; P. falciparum, 120 h, parasite screen 2 μg/mL, % growth, replicate 2): 25.01% | Tg_72h_%Growth_Rep1 ([2]; T. gondii, parasite screen 2 μg/mL, % growth, replicate 1): 105.88% | Tg_72h_%Growth_Rep2 ([2]; T. gondii, parasite screen 2 μg/mL, % growth, replicate 2): 102.71% | Pf_72h_%Growth_Rep1 ([3]; P. falciparum, 72 h, parasite screen 2 μg/mL, % growth, replicate 1): 26.98% | Pf_72h_%Growth_Rep2 ([3]; P. falciparum, 72 h, parasite screen 2 μg/mL, % growth, replicate 2): 44.84%

Cc1c2ccocc-2oc1=O [BIA-K1791]
Pf_120h_%Growth_Rep1 [1, 10]: 94.18% | Pf_120h_%Growth_Rep2 [1, 11]: 112.81% | Tg_72h_%Growth_Rep1 [2, 12]: 112.84% | Tg_72h_%Growth_Rep2 [2, 13]: 99.08% | Pf_72h_%Growth_Rep1 [3, 14]: 78.18% | Pf_72h_%Growth_Rep2 [3, 15]: 121.18%

CC1(C)CCC[C@]2(C)[C@@H](C=O)C(C=O)=CC[C@@H]12 [Polygodial]
activity at 2 µg/mL ([1]; 3D7, P. falciparum, 120 h, parasite screen 2 μg/mL, % growth, replicate 1, read-out: Pf_120h_%Growth_Rep1): 6.02% | activity at 2 µg/mL ([1]; 3D7, P. falciparum, 120 h, parasite screen 2 μg/mL, % growth, replicate 2, read-out: Pf_120h_%Growth_Rep2): 28.5% | percent parasite growth at 2 µg/mL ([2]; T. gondii, parasite screen 2 μg/mL, % growth, replicate 1, read-out: Tg_72h_%Growth_Rep1): 101% | percent parasite growth at 2 µg/mL ([2]; T. gondii, parasite screen 2 μg/mL, % growth, replicate 2, read-out: Tg_72h_%Growth_Rep2): 101% | activity at 2 µg/mL ([3]; 3D7, P. falciparum, 72 h, parasite screen 2 μg/mL, % growth, replicate 1, read-out: Pf_72h_%Growth_Rep1): 1.12% | activity at 2 µg/mL ([3]; 3D7, P. falciparum, 72 h, parasite screen 2 μg/mL, % growth, replicate 2, read-out: Pf_72h_%Growth_Rep2): -3.71%

COc1cc2nccc3c4ccccc4n(c1=O)c23 [BIA-M1940]
Pf_120h_%Growth_Rep1 [1, 16]: 112.19% | Pf_120h_%Growth_Rep2 [1, 17]: 105.38% | Tg_72h_%Growth_Rep1 [2, 18]: 156.47% | Tg_72h_%Growth_Rep2 [2, 19]: 73.09% | Pf_72h_%Growth_Rep1 [3, 20]: 95.54% | Pf_72h_%Growth_Rep2 [3, 21]: 122.74%

COc1c(O)c2c(=O)cc3c4c5c(cc(=O)c6c(O)c(OC)c(C[C@H](C)OC(C)=O)c(c(c1C[C@H](C)OC(C)=O)c24)c65)OCO3 [Diacetylcercosporin]
Pf_120h_%Growth_Rep1 [1, 22]: -5.54% | Pf_120h_%Growth_Rep2 [1, 23]: 6.35% | Tg_72h_%Growth_Rep1 [2, 24]: 4.49% | Tg_72h_%Growth_Rep2 [2, 25]: 14.87% | Pf_72h_%Growth_Rep1 [3, 26]: 2.60% | Pf_72h_%Growth_Rep2 [3, 27]: 15.99%

C=Cc1cc(OC)c2c(c1)c(=O)oc1c2cc(OC)c2c(O)ccc([C@H]3O[C@H](C)[C@@H](O)[C@@H](N(C)C)[C@@H]3O)c21 [Deacetylravidomycin]
Pf_120h_%Growth_Rep1 [1, 4]: 1.87% | Pf_120h_%Growth_Rep2 [1, 5]: 7.89% | Tg_72h_%Growth_Rep1 [2, 6]: 3.62% | Tg_72h_%Growth_Rep2 [2, 7]: 4.01% | Pf_72h_%Growth_Rep1 [3, 8]: 3.21% | Pf_72h_%Growth_Rep2 [3, 9]: 5.95%

CC(C)=CCCC(C)C1CCC2(C)CC3C(C(=O)CC3(C)O)C(C=O)=CCC12 (stereo not drawn) [BIA-O1199]
Pf_120h_%Growth_Rep1 [1, 16]: 3.94% | Pf_120h_%Growth_Rep2 [1, 17]: 138.56% | Tg_72h_%Growth_Rep1 [2, 18]: 7.63% | Tg_72h_%Growth_Rep2 [2, 19]: 89.80% | Pf_72h_%Growth_Rep1 [3, 20]: -0.50% | Pf_72h_%Growth_Rep2 [3, 21]: -3.29%

CC1=CCCC(C)C(O)C(C)C(O)CCC=CC(C)C(O)C=CC(C)C(O)C(C)=CC(O[C@H]2O[C@H](CO)[C@@H](O)[C@H](O)[C@@H]2O)C(O)CC(O)CC(O)CC(O)C(C)C(O)C(C)C(O)CC(O)CC(O)C=CCC(C(C)C(O)CCCN)OC1=O (stereo partly drawn) [Desertomycin A]
Pf_120h_%Growth_Rep1 [1, 22]: 93.27% | Pf_120h_%Growth_Rep2 [1, 23]: 101.55% | Tg_72h_%Growth_Rep1 [2, 24]: 97.84% | Tg_72h_%Growth_Rep2 [2, 25]: 106.51% | Pf_72h_%Growth_Rep1 [3, 26]: 84.25% | Pf_72h_%Growth_Rep2 [3, 27]: 90.28%

C/C=C/[C@H]1O[C@@](O)([C@@H](C)[C@H](O)[C@H](C)[C@H]2OC(=O)/C(OC)=C/C(C)=C/[C@@H](C)[C@@H](O)[C@@H](C)[C@@H](O)[C@H](C)C/C(C)=C/C=C/[C@@H]2OC)C[C@@H](O[C@H]2C[C@@H](O)[C@H](OC(N)=O)[C@@H](C)O2)[C@@H]1C [Concanamycin B]
Pf_120h_%Growth_Rep1 [1, 4]: -3.38% | Pf_120h_%Growth_Rep2 [1, 5]: 8.50% | Tg_72h_%Growth_Rep1 [2, 6]: -1.62% | Tg_72h_%Growth_Rep2 [2, 7]: 0.33% | Pf_72h_%Growth_Rep1 [3, 8]: 2.18% | Pf_72h_%Growth_Rep2 [3, 9]: 1.46%

O=C1C=CC(=O)c2c(O)cccc21 [BIA-J1739]
Pf_120h_%Growth_Rep1 [1, 10]: 84.54% | Pf_120h_%Growth_Rep2 [1, 11]: 95.25% | Tg_72h_%Growth_Rep1 [2, 12]: 123.29% | Tg_72h_%Growth_Rep2 [2, 13]: 97.98% | Pf_72h_%Growth_Rep1 [3, 14]: 80.59% | Pf_72h_%Growth_Rep2 [3, 15]: 97.69%

CC(=O)NCCc1cnc[nH]1 [Acetylhistamine, N-]
Pf_120h_%Growth_Rep1 [1, 22]: 90.99% | Pf_120h_%Growth_Rep2 [1, 23]: 93.21% | Tg_72h_%Growth_Rep1 [2, 24]: 95.97% | Tg_72h_%Growth_Rep2 [2, 25]: 105.85% | Pf_72h_%Growth_Rep1 [3, 26]: 82.83% | Pf_72h_%Growth_Rep2 [3, 27]: 91.72%

C=C(C)[C@@H]1CC[C@]2(C(=O)OC)CC[C@]3(C)[C@H](CC[C@@H]4[C@@]5(C)CC[C@H](O)C(C)(C)[C@@H]5CC[C@]43C)[C@@H]12 [Betulinate, Methyl]
Pf_120h_%Growth_Rep1 [1, 22]: 150.46% | Pf_120h_%Growth_Rep2 [1, 23]: 92.78% | Tg_72h_%Growth_Rep1 [2, 24]: 84.95% | Tg_72h_%Growth_Rep2 [2, 25]: 84.36% | Pf_72h_%Growth_Rep1 [3, 26]: 96.31% | Pf_72h_%Growth_Rep2 [3, 27]: 86.01%

CC(C)[C@@H]1NC(=O)[C@@H]2CCCN2C1=O [Cyclo(L-Pro-L-Val)]
Pf_120h_%Growth_Rep1 [1, 4]: 101.90% | Pf_120h_%Growth_Rep2 [1, 5]: 92.75% | Tg_72h_%Growth_Rep1 [2, 6]: 147.92% | Tg_72h_%Growth_Rep2 [2, 7]: 100.59% | Pf_72h_%Growth_Rep1 [3, 8]: 85.07% | Pf_72h_%Growth_Rep2 [3, 9]: 82.22%
